Laboratory results taken from patent US20250135012A1, “DENDRIMER CONJUGATES OF SMALL MOLECULE BIOLOGICS FOR INTRACELLULAR DELIVERY” (The Johns Hopkins University, priority 2021, published 2025).
Non-standard residues stand in square brackets, D forms with d. Residues, ends and D or L forms follow the SMILES beside them. Cya = N[C@@H](CS(=O)(=O)O)C(=O)O

Columns and labels:
proteinase K = proteinase K (Parengyodontium album, UniProt P06873); experiment: in vitro; settings: proteinase K (isolated protease)
Procedure: Proteinase K stock solution was purchased from ThermoFisher and used as is. […] The mixture was incubated at 37° C. and at set time points, 100 μL of the mixture was removed and analyzed through HPLC.

IL1β = experiment: Choroid IL1β qPCR; assay type: in vivo, Brown Norway rats; settings: 7 and 14 days
Procedure: (§1) In brief, 500 μL of T-Per supplemented with PHOSSTOP® and proteinase inhibitor cocktail was added to tubes containing dissected choroid. A scoop of 1.6 mm steel homogenization beads was added to each sample and then placed in […]® LT (Qiagen) at an oscillation frequency of 50/s for 15 minutes. For qPCR, 200 μL of TRIZOL® was added to tubes containing choroid and a scoop of 1.6 mm steel homogenization beads was added. The samples were placed in […]® LT at an oscillation frequency of 50/s for 15 minutes.
(§2) 100 μL of chloroform was added to the Trizol suspension and the aqueous phase was separated with a centrifuge at 10K RPM at 4° C. for 15 minutes. 400 μL of 2-propanol was added to the aqueous solution and spun again to pellet the RNA. The RNA was washed with 70% ethanol solution, pelleted again, and re-suspended in DEPC (ultrapure treated to inactivated enzymes) water.
(§3) To convert RNA to complementary DNA, 2 μg of RNA was converted using a High-Capacity cDNA Reverse Transcription Kit (Applied Biosystems, Foster City, CA). Samples were analyzed using STEPONE PLUS® real-time PCR system (Applied Biosystems) with SYBR Green reagent (ThermoFisher Scientific). Relative expression was quantified with ΔΔCt calculations normalized to controls. Primers for GAPDH was obtained from Bio-Rad Laboratories (Hercules, CA). Primers were purchased from Integrated DNA Technologies (Coralville, IA). […]

FAK [1] = experiment: Choroid total FAK and phospho-FAK (Y397) ELISA; assay type: in vivo, Brown Norway rats
Procedure: as §1
For protein extracted from tissues, total FAK and FAK (Phospho) [pY397] ELISA kits (Invitrogen) were used to quantify the level of protein expression and the measured protein expression was normalized to the total protein amount of each sample as determined from BCA assays.
(§4) To evaluate activation of FAK and ERK pathways, eyes were enucleated at set time points and the choroidal tissue dissected out. Tissues were submerged in a mixture of T-per, proteinase inhibitor, and PhosStop with stainless steel homogenization beads and homogenized to produce protein extracts. Total FAK, total ERK, p-FAK (Y397), and p-44/42 ERK ELISA kits were used to quantify the amount of total and phosphorylated proteins in FAK and ERK pathways. […] However, the level of total FAK protein in ALG-1001 treated animals was elevated at day 14.

FAK [2] = experiment: Western blot, FAK and phospho-FAK in VEGF stimulated HUVEC; assay type: cell-based, human
Procedure: (§5) Cells were treated with D-ALG1001 and ALG-1001 for 24 h before activation with VEGF for 5 minutes. […] Cells were lysed with TRIZOL® and processed as previously described for qPCR analysis.
(§6) Concentration of protein was determined with the BCA protein assay kit (Thermo Scientific, Rockford, IL). Equal amount of protein was denatured and resolved on 4-15% TGX gels (Bio-Rad, Hercules, CA). Gels were transferred to nitrocellulose membranes, blocked with 3% Bovine Serum Albumin (“BSA”) at RT for 1 h, and probed for GAPDH, FAK, pFAK, MAPK, and pMAPK at 4° C. overnight. Membranes were washed thrice before incubation with HRP-conjugated secondary antibodies followed by incubation with chemiluminescent substrate for visualization.
(§7) To elucidate the mechanism through which D-ALG and ALG-1001 influence angiogenic function, cells were pre-treated with D-ALG and ALG-1001 for 24 h. The cells were then stimulated with a high dose of exogenous VEGF for 5 min after which the samples were collected for western blotting. The samples were probed for expression of total FAK, phospho-FAK (Y397), ERK1/2, phospho-ERK1/2, and Cyclophilin B (CycB) with CycB acting as the internal control.

TNFα = experiment: Choroid TNFα qPCR; assay type: in vivo, Brown Norway rats; settings: 7 and 14 days
Procedure: as §1, §2, §3

VEGF-A [3] = experiment: VEGF-A expression by VEGF stimulated endothelial cells; assay type: cell-based, human; settings: co-incubated with VEGF-A
Procedure: as §5
In addition to examining pathway activation, the effects of D-ALG and ALG-1001 were also studied on VEGF-A expression by endothelial cells.

HUVEC cells = experiment: HUVEC vessel formation assay on Matrigel; assay type: cell-based, human; settings: 1 mM
Procedure: 96 well plates were coated with 75 μL of […]® and left at room temperature for 15 minutes before placing into 37° C. incubators for an additional 30 minutes. D-ALG1001 was dissolved at twice the desired concentration and 50 μL of the drug solution was added to the wells. HUVEC cells were then added to each well at a density of 70,000 cells/cm^2. Live-cell images were taken at 12 h for analysis.
To find the effective dose in a physiologically relevant model, an in vitro model of blood vessel formation was utilized. HUVEC cells were treated with a gradient concentration of D-ALG and ALG-1001 for 24 h at three different magnitudes of doses. The cells were then seeded on […]® after which cells naturally migrate to form blood vessel-like tubule structures. The images were analyzed with Angiogenesis Analyzer plug-in on ImageJ to extract relevant metrics that measure the connectivity and integrity of tube networks (FIG. 16).

p44/42 ERK = experiment: Choroid total ERK and phospho-p44/42 ERK ELISA; assay type: in vivo, Brown Norway rats
Procedure: as §1, §4

VEGF-A [4] = experiment: Choroid VEGF-A qPCR; assay type: in vivo, Brown Norway rats; settings: 7 and 14 days
Procedure: as §1, §2, §3

ERK1/2 = experiment: Western blot, ERK1/2 phosphorylation in VEGF stimulated HUVEC; assay type: cell-based, human; settings: 1 mM on a peptide basis, vs VEGF stimulated controls
Procedure: as §5, §6, §7

proteinase K, sequence (P06873 106-384): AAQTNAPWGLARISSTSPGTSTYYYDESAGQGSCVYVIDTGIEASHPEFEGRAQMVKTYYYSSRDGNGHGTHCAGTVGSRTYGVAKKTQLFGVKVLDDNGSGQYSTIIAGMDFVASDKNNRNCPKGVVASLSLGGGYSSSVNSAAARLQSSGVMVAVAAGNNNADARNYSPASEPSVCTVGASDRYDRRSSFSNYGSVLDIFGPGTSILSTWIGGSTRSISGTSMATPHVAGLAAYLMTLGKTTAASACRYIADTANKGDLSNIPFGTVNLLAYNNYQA

C[C@@H](O)[C@H](NC(=O)[C@H](CS(=O)(=O)O)NC(=O)CNC(=O)[C@H](CCCNC(=N)N)NC(=O)CN)C(=O)N1CCC[C@H]1C(=O)O [ALG-1001] (H-GRG[Cya]TP-OH; N-terminus and C-terminus assumed) was tested, and the metabolised at 0.5 h, 2 mg/mL (proteinase K) was about 50%, the metabolised at […], 2 mg/mL (proteinase K) was about 90% and the “IL1β expression (qPCR)” value (IL1β) was “only reduced at day 14”. For the same compound, the p-FAK protein (FAK [1]; 7 and 14 days) was “reduction of p-FAK”, the “total FAK protein” value (FAK [1]; day 14) was “elevated” and the “reduction of phospho-FAK” value (FAK [2]; 1 mM on a peptide basis, vs VEGF stimulated controls) was 20%. The “total FAK and phospho-FAK expression” value (FAK [2]; vs untreated VEGF stimulated controls) was “lower levels of total FAK and phosphor-FAK”, the “TNFα level (qPCR)” value (TNFα) was “lower TNFα levels across both time points” and the “VEGF production compared to the control” value (VEGF-A [3]) was “did not have statistically significant increases”. The tube formation (HUVEC cells) was “increased disruption in tube formation”, the “total ERK” value (p44/42 ERK; day 7) was “remained relatively constant” and the “total ERK” value (p44/42 ERK; day 14, vs untreated animals) was “slight reduction”. For the same compound, the “phospho-p44/42 ERK” value (p44/42 ERK; rat, in vivo) was “decrease of p44/42 ERK production”, the “VEGF-A production (qPCR)” value (VEGF-A [4]) was “lower VEGF-A production at 14 days only” and the “reduction of phospho-ERK1/2” value (ERK1/2) was about 60%.
